Assay results as given in patent publication US8129137B2, “Two-photon probe for real-time monitoring of intracellular free zinc ions, method for preparing the probe and method for real-time monitoring of intracellular free zinc ions using the probe” (Korea University Industrial & Academic Collaboration …, priority 2008, dated 2012).
Values after ≈ are worked out from the molar mass of the structure shown.

Experiments:
Format in all cases: physicochemical
[1] = Measurement of water solubility; details: kinetic from dmso stock, H2O, 0.2% DMSO, maximum concentration in the linear region of fluorescence intensity vs probe concentration
Protocol: A small amount of each of the two-photon probes (AZn2 and AZn1) prepared in Examples 1 and 2 was dissolved in DMSO to prepare a stock solution ([…]). The solution was diluted to 6.0×10^−3˜6.0×10^−5 M and added to a cuvette containing 3.0 mL of H2O by using a micro syringe. In all cases, the concentration of DMSO in H2O was maintained to be 0.2%.
FIGS. 1a through 1d are plots showing variations in the fluorescence intensity of the two-photon probes at different concentrations.
The plots of FIGS. 1b and 1d show variations in the fluorescence intensity of AZn2 and AZn1 as a function of the probe concentration, respectively, and have a profile in which the fluorescence intensity increases linearly at low concentrations. […] The maximum concentration in the linear region was taken as the water solubility. The water solubilities of the two probes were all 3.0 μM.

[2] = Fluorescence quantum yield (Coumarin 307 as reference)
Protocol: The absorption spectra of the two-photon probes were recorded on a Hewlett-Packard 8453 diode array spectrophotometer, and the fluorescence spectra of the two-photon probes were obtained with an Amico-Bowman series 2 luminescence spectrometer with a 1 cm standard quartz cell. The fluorescence quantum yields of the two-photon probes were determined by using Coumarin 307 as the reference by the literature method (J. N. Demas, G. A. Crosby, J. Phys. Chem. 1971, 75, 991-1024.). FIGS. 2a and 2b are one-photon absorption and emission spectra of the two-photon probe AZn1, respectively, and FIGS. 2c and 2d are one-photon absorption and emission spectra of the two-photon probe AZn2, respectively.

[3] = Two-photon cross section and action spectra; details: MOPS buffer pH 7.2, presence of Zn2+; 780 nm
Protocol: The two-photon cross section (δ) was determined by using femto second (fs) fluorescence measurement technique.
The intensities of the two-photon induced fluorescence spectra of the reference and the sample probe were measured, and the two-photon cross section of the sample probe was calculated according to Equation 3:
[formula] wherein the subscripts s and r represent sample and reference molecules, respectively, δ represents the two-photon cross section, S represents the strength of signals collected by a CCD detector, φ represents the fluorescence quantum efficiency, φrepresents the total fluorescence collection efficiency of an experimental system, c represents the number density of the molecules within each of the solutions, and δr represents the two-photon cross section of reference molecules.
Referring to FIG. 9, the two-photon action spectra of the Zn^2+ complexes with AZn1 and AZn2 in the buffer solutions indicated a φδ value of ˜90 GM at 780 nm, 4˜24-fold larger than those of TSQ and FluZin-3.

[4] = One-photon fluorescence intensity as a function of pH; details: biologically relevant pH; 1 μM probe, 30 mM MOPS, 100 mM KCl
Protocol: FIGS. 8a and 8b show the one-photon fluorescence intensities of AZn1 and AZn2 (1 μM for each), respectively, as a function of pH when free Zn^2+ were absent (∘) and present at a concentration of 1 μM (▪) in mixed solutions of 30 mM MOPS and 100 mM KCl.

[5] = 20 mM MOPS, 100 mM KCl, 10 mM EGTA, pH 7.2, absence of Zn2+, ±10%
[6] = 20 mM MOPS, 100 mM KCl, 10 mM EGTA, pH 7.2, presence of Zn2+, ±10%

Compound	solubility [1]	fluorescence quantum yield φ [2, 5]	fluorescence quantum yield φ [2, 6]	fluorescence quantum yield φ ([2]; 1,4-dioxane, ±15%)	fluorescence quantum yield φ ([2]; DMF, ±15%)	fluorescence quantum yield φ ([2]; Ethanol, ±15%)	fluorescence quantum yield φ ([2]; H2O, ±15%)	δ, peak two-photon cross section [3]	φδ, two-photon action cross section [3]	pH sensitivity of fluorescence [4]
Nc1ccc(NCCN(Cc2ccccn2)Cc2ccccn2)cc1 [AZn1]	3 µM (≈ 1 µg/mL)	0.022	0.47	0.19	0.055	0.057	0.022	210 GM	86 GM	pH insensitivity
COc1cc(NC(=O)CN(C)c2ccc3cc(C(C)=O)ccc3c2)ccc1NCCN(Cc1ccccn1)Cc1ccccn1 [AZn2]	3 µM (≈ 1.81 µg/mL)	0.012	0.65	0.094	0.037	0.039	0.012	140 GM	95 GM	pH insensitivity
